Legend:
beta-catenin = assay: Nuclear beta-catenin luciferase assay in TCF/LEF reporter_HEK293 cell line; assay type: cell-based; settings: TCF/LEF reporter_HEK293, 1 μm or 10 μm, 24 hours, FIG. 1
[1] = system: mitochondrial permeability transition pore (mPTP); assay: TMRM staining of 293T cells after CCCP-induced mPTP opening; assay type: cell-based; settings: 1 μM and 10 μM, CCCP 50 μM, FIG. 3
[2] = system: reperfusion injury mouse model; assay: Mouse myocardial necrosis in reperfusion injury model, Annexin-Vivo750 fluorescent dye; assay type: in vivo; settings: Annexin-Vivo750, FIG. 7B
Protocol: In order to confirm the inhibitory effect of deoxycholic acid among the bile acids on myocardial necrosis caused by reperfusion injury, the test was performed to confirm mouse myocardial necrosis using Annexin-Vivo750 fluorescent dye.
After 24 hours, Annexin-Vivo750 fluorescent dye was injected into the mouse model prepared in Example 3 to examine the effect of deoxycholic acid (1, 2, 5 mg/kg (mpk)) by the concentration. Annexin dyes are known to bind where apoptosis occurs and to show fluorescence.

[3] = system: reperfusion injury mouse model; assay: Reperfusion injury mouse model, TTC staining of infarcted heart tissue

Row | Structure (SMILES) | beta-catenin levels in the nucleus (luciferase activity) (beta-catenin) | inhibition of mitochondrial injury [1] | decrease of myocardial death compared to the control group with reperfusion surgery ([2]; 1 mpk) [%] | decrease of myocardial death compared to the control group with reperfusion surgery ([2]; 2 mpk) [%] | reduction of the infarcted area ([3]; 2 mg/kg, FIG. 6B) | concentration at which cells died ([3]; reperfusion injury mouse model) [mg/kg] | concentration at which the effect was shown ([3]; reperfusion injury mouse model) [mg/kg]
1 | C[C@H](CCC(=O)NCCS(=O)(=O)O)[C@H]1CC[C@H]2[C@@H]3[C@H](O)C[C@@H]4C[C@H](O)CC[C@]4(C)[C@H]3C[C@H](O)[C@]12C [TauroCA, taurocholic acid] | significantly increased | – | – | – | – | – | –
2 | C[C@H](CCC(=O)O)[C@H]1CC[C@H]2[C@@H]3[C@H](O)C[C@@H]4C[C@H](O)CC[C@]4(C)[C@H]3C[C@H](O)[C@]12C [cholic acid] | significantly increased | about 90% | – | – | – | – | –
3 | C[C@H](CCC(=O)O)[C@H]1CC[C@H]2[C@@H]3CC[C@@H]4C[C@H](O)CC[C@]4(C)[C@H]3C[C@H](O)[C@]12C [deoxycholic acid] | – | about 90% | ≥ 40 | ≥ 40 | about 50% | ≥ 10 | ≤ 2

Reference: patent US11185553B2, “Pharmaceutical composition for preventing or treating ischemic-reperfusion injury comprising bile acids” (priority 2016, dated 2021)
